# Data published in the supplement of paper PMC11208160.
# Test: recombinant UMI read abundance after kanamycin selection (control-corrected) (log10(CPM+1)); higher = more efficient recombination; extreme values may be limits of the assay; sequences stand for … in AGTGCAGAGAAAATCGGCCAGTTTTCTCTGCCTGCAGTCCGCATGCCGTGGGACCCCTTGGGTTCTAACCTGTTGCCTAGATTTATGCAGCGGACTGCCTTTCTCCCAAAGTGATAAACCGG…AGGTTGGTTTCACT; site = the 11-nt donor
# Outline: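 Values are reported as log10(CPM+1), obtained by converting sequencing counts to CPM, averaging replicates and scaling by control-derived factors. The counts came from recombinant UMIs amplified by PCR across the donor–target junction. These UMIs came from a pooled Escherichia coli screen of donor and donor-binding-loop pairs for the IS621 bridge recombinase, plated with IPTG (0.07 mM) plus kanamycin or left unselected, in two replicates each.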
# 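Also: IS621 bridge recombinase in Escherichia coli cells against a fixed T5 target plasmid.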
row,Sequence,recombinant UMI read abundance (log10)
1,ATAAGGCCATGGACCGGTTTTCCCGGTAATCCGTATTTGAG (site ATAAGGCCTAT),0.00358
2,ATAAGGCCATGGACCGGTTTTCCCGGTAATCCGTATTTGAG (site ATAAGGCCTCT),0.325
3,ATAAGGCCATGGACCGGTTTTCCCGGTAATCCGTATTTGAG (site ATAAGGCCTGT),0
4,ATAAGGCCATGGACCGGTTTTCCCGGTAATCCGTATTTGAG (site ATAAGGCCTTT),0.025
5,ATAAGGGCATGGACCGGTTTTCCCGGTAATCCGTATTTGAC (site ATAAGGACTGT),2.61
6,ATAAGGGCATGGACCGGTTTTCCCGGTAATCCGTATTTGAC (site ATAAGGCCTGT),0.00415
7,ATAAGGGCATGGACCGGTTTTCCCGGTAATCCGTATTTGAC (site ATAAGGGCTGT),2.79
8,ATAAGGGCATGGACCGGTTTTCCCGGTAATCCGTATTTGAC (site ATAAGGTCTGT),2.53
9,ATAAGGTCATGGACCGGTTTTCCCGGTAATCCGTATTTGAC (site ATAAGGACTGT),1.91
10,ATAAGGTCATGGACCGGTTTTCCCGGTAATCCGTATTTGAC (site ATAAGGCCTGT),1.04
11,ATAAGGTCATGGACCGGTTTTCCCGGTAATCCGTATTTGAC (site ATAAGGGCTGT),0.526
12,ATAAGGTCATGGACCGGTTTTCCCGGTAATCCGTATTTGAC (site ATAAGGTCTGT),3.4
13,ATACACACATGGACCGGTTTTCCCGGTAATCCGTATTTGGG (site ATACACACTCC),0.537
14,ATACAGCCATGGACCGGTTTTCCCGGTAATCCGTATTTGGT (site ATACAGCCTAC),0.00946
15,ATACATCCATGGACCGGTTTTCCCGGTAATCCGTATTTGAC (site AAACATCCTGT),0
16,ATACATCCATGGACCGGTTTTCCCGGTAATCCGTATTTGAC (site ACACATCCTGT),0
17,ATACATCCATGGACCGGTTTTCCCGGTAATCCGTATTTGAC (site AGACATCCTGT),0
18,ATACATCCATGGACCGGTTTTCCCGGTAATCCGTATTTGAC (site ATACATCCTGT),1.12
19,ATACGAACATGGACCGGTTTTCCCGGTAATCCGTATTTGTC (site AAACGAACTGA),0

row,Sequence,recombinant UMI read abundance (log10)
1,ATACGAACATGGACCGGTTTTCCCGGTAATCCGTATTTGTC (site ACACGAACTGA),0
2,ATACGAACATGGACCGGTTTTCCCGGTAATCCGTATTTGTC (site AGACGAACTGA),0
3,ATACGAACATGGACCGGTTTTCCCGGTAATCCGTATTTGTC (site ATACGAACTGA),2.83
4,ATACGGACATGGACCGGTTTTCCCGGTAATCCGTATTTGAA (site ATACGGACTTT),1.39
5,ATACTATCATGGACCGGTTTTCCCGGTAATCCGTATTTGCA (site ACAGTATCTTG),1.72
6,ATACTATCATGGACCGGTTTTCCCGGTAATCCGTATTTGCA (site ATACTATCTTG),2.84
7,ATAGACCCATGGACCGGTTTTCCCGGTAATCCGTATTTGAT (site ATAGACCCTAT),1.21
8,ATAGAGACATGGACCGGTTTTCCCGGTAATCCGTATTTGGT (site ATAGAGACTAC),1.75
9,ATAGAGACATGGACCGGTTTTCCCGGTAATCCGTATTTGGT (site ATCGAGACTAC),0.671
10,ATAGAGACATGGACCGGTTTTCCCGGTAATCCGTATTTGGT (site ATGGAGACTAC),0.992
11,ATAGAGACATGGACCGGTTTTCCCGGTAATCCGTATTTGGT (site ATTGAGACTAC),1.03
12,ATAGATACATGGACCGGTTTTCCCGGTAATCCGTATTTGCC (site ATAGATACTGG),2.54
13,ATAGCCTCATGGACCGGTTTTCCCGGTAATCCGTATTTGTA (site ATAGCCTCTTA),2.86
14,ATAGCTACATGGACCGGTTTTCCCGGTAATCCGTATTTGCG (site ATAGCTACTCG),2.1
15,ATAGCTACATGGACCGGTTTTCCCGGTAATCCGTATTTGTA (site ATAGCTACTTA),2.3
16,ATAGGTACATGGACCGGTTTTCCCGGTAATCCGTATTTGAC (site ATAGGTACTGT),2.8
17,ATAGGTACATGGACCGGTTTTCCCGGTAATCCGTATTTGAC (site CTAGGTACTGT),1.97
18,ATAGGTACATGGACCGGTTTTCCCGGTAATCCGTATTTGAC (site GTAGGTACTGT),1.68
19,ATAGGTACATGGACCGGTTTTCCCGGTAATCCGTATTTGAC (site TTAGGTACTGT),2.15

row,Sequence,recombinant UMI read abundance (log10)
1,ATAGTAGCATGGACCGGTTTTCCCGGTAATCCGTATTTGCA (site ACAGTATCTTG),0.993
2,ATAGTAGCATGGACCGGTTTTCCCGGTAATCCGTATTTGCA (site ATAGTAGCTTG),3.08
3,ATAGTATCATGGACCGGTTTTCCCGGTAATCCGTATTTGAC (site ATAGTATCTGT),3.75
4,ATAGTATCATGGACCGGTTTTCCCGGTAATCCGTATTTGAC (site CTAGTATCTGT),2.94
5,ATAGTATCATGGACCGGTTTTCCCGGTAATCCGTATTTGAC (site GTAGTATCTGT),2.49
6,ATAGTATCATGGACCGGTTTTCCCGGTAATCCGTATTTGAC (site TTAGTATCTGT),2.66
7,ATAGTATCATGGACCGGTTTTCCCGGTAATCCGTATTTGCA (site AAAGTATCTTG),2.4
8,ATAGTATCATGGACCGGTTTTCCCGGTAATCCGTATTTGCA (site ACAGTATCTTG),2.34
9,ATAGTATCATGGACCGGTTTTCCCGGTAATCCGTATTTGCA (site AGAGTATCTTG),2.15
10,ATAGTATCATGGACCGGTTTTCCCGGTAATCCGTATTTGCA (site ATAGTATCTTG),3.37
11,ATAGTATCATGGACCGGTTTTCCCGGTAATCCGTATTTGCC (site ATAGTATCTGG),3.34
12,ATAGTATCATGGACCGGTTTTCCCGGTAATCCGTATTTGCC (site CTAGTATCTGT),0.756
13,ATATACCCATGGACCGGTTTTCCCGGTAATCCGTATTTGCG (site ATATACCCTCG),0.817
14,ATATATGCATGGACCGGTTTTCCCGGTAATCCGTATTTGCT (site ATATATGCTAG),2.99
15,ATATCACCATGGACCGGTTTTCCCGGTAATCCGTATTTGCT (site ATATCACCTAG),0
16,ATATCATCATGGACCGGTTTTCCCGGTAATCCGTATTTGCG (site ATATCATCTCG),2.11
17,ATATCTACATGGACCGGTTTTCCCGGTAATCCGTATTTGTG (site AAATCTACTCA),0.252
18,ATATCTACATGGACCGGTTTTCCCGGTAATCCGTATTTGTG (site ACATCTACTCA),0.246
19,ATATCTACATGGACCGGTTTTCCCGGTAATCCGTATTTGTG (site AGATCTACTCA),0.401
